{"source": "patent US9029332B2", "about": "“Cross-linked peptides and proteins, methods of making same, and uses thereof” (The Research Foundation for The State University of New York, priority 2010, dated 2015)", "key": {"GST-Mcl-1 [1]": {"target": "T1, GST-Mcl-1 (Homo sapiens, UniProt Q07820)", "T1 sequence (Q07820 whole entry)": "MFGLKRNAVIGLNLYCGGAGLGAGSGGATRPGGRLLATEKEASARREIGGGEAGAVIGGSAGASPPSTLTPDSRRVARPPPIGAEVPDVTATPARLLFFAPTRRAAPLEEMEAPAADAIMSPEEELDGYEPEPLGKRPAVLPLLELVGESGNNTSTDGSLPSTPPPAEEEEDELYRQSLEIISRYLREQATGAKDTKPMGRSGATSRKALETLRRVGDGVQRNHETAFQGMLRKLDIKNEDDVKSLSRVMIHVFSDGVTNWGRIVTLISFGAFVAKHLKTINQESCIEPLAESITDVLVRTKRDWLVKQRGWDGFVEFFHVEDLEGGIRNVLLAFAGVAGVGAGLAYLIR", "assay": "FP binding affinity of fluorescein-labeled peptides, Mcl-1", "conditions": "FP assay, fluorescein-labeled peptide"}, "GST-Bcl-xL": {"target": "GST-Bcl-xL (Homo sapiens, UniProt Q07817)", "sequence (Q07817 whole entry)": "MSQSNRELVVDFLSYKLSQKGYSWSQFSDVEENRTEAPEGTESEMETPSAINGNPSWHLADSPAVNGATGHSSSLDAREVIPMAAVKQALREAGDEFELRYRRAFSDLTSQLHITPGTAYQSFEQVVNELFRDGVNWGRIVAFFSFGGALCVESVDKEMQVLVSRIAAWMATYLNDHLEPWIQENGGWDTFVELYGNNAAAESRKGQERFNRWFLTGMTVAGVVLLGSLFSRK", "assay": "FP binding affinity of fluorescein-labeled peptides, Bcl-xL", "conditions": "FP assay, fluorescein-labeled peptide; read-out: GST-Bcl-xL Kd"}, "HeLa cells [2]": {"tested_on": "HeLa cells", "assay": "FACS analysis of cell permeability of fluorescein-conjugated peptides", "assay_type": "cell-based", "conditions": "10 μM fluorescein-conjugated peptide, 2 h", "description": "FACS Analysis. HeLa Cells were cultured in DMEM medium supplemented with 10% fetal bovine serum in 6-well plate in a 37° C., 5% CO2 incubator to reach confluency of around 70%. The cells were then washed twice with PBS before switching to serum-free DMEM medium. After standing in the incubator for 30 minutes, appropriate amounts of peptides (1 mM in DMSO) were added to the culture plate to obtain a final peptide concentration of 10 μM. Cells were incubated at 37° C. for additional 2 hrs. Then the medium was removed and the cells were washed with PBS (3×) followed by treatment with trypsin to detach the cells. After a brief low-speed centrifugation, the HeLa cells were collected and re-suspended in PBS for the FACS analysis."}, "HeLa cells [3]": {"tested_on": "HeLa cells", "assay": "Confocal microscopy of fixed HeLa cells, cellular fluorescence", "assay_type": "cell-based", "conditions": "10 μM fluorescein-conjugated peptide, 2 hours", "description": "(§1) FIG. 8. (a) Confocal images of fixed HeLa cells after treatment with 10 μM of fluorescein-conjugated peptides for 2 hours. Scale bar=50 μm. (b) Cell viability assay using the CellTiter-Glo reagent.\nHeLa Cells were seeded into 35 mm glass bottom microwell dishes (MatTek, Ashland, Mass.) at a density of 3×105 in DMEM medium supplemented with 10% fetal bovine serum, and the cells were allowed to grow in a 37° C. 5% CO2 incubator for 48 hours. After removing medium, the cells were washed twice with PBS and then incubated in serum-free DMEM medium for 30 minutes. Appropriate amounts of peptides (1 mM in DMSO) were then added to obtain a final concentration of 10 μM and cells were incubated at 37° C. for 2 hours. After PBS wash, cells were treated with 4% formaldehyde in PBS for 20 minutes at room temperature. The fixation medium was removed and the cells were washed with PBS (3×) before placing cells into the low florescent mounting medium for fluorescent imaging acquisition."}, "HeLa cells [4]": {"tested_on": "HeLa cells", "assay": "Cell viability assay (CellTiter-Glo, ATP) and DIC imaging, cytotoxicity", "assay_type": "cell-based", "conditions": "10 μM, 2 hours; DIC channel and ATP assay", "description": "as §1\nCell Viability Assay. HeLa cells were seeded into an opaque 96-well plate at a density of 1×10^4 per well in 100 μL DMEM medium supplemented with 10% FBS and the cells were allowed to grow in a 37° C. 5% CO2 incubator for 48 hrs to reach confluency of around 80%. Prior to the compound treatment, the medium was replaced with serum-free medium and the cells were incubated for 30 minutes. Appropriate amounts of peptides (1 mM in DMSO) were then added to obtain a final concentration of 10 μM and the cells were incubated at 37° C. for 2 hours. Afterwards, the plate was allowed to stand at room temperature for 30 minutes before 100 μL of Cell-Titer Glow reagent (Promega) was added. The plate was incubated at room temperature for 10 minutes. The luminescence signals were recorded with an FLX 800 luminescence plate reader (BioTek). The plotted data represented the average of the readings from 4 separate wells."}, "[5]": {"assay": "Circular dichroism, percent helicity", "assay_type": "physicochemical", "conditions": "compared to the linear NoxaBH3 peptide, 50 μM in 20% ACN/H2O", "description": "FIG. 12. […] The peptides were dissolved in 20% ACN/H2O for a final concentration of 50 μM.\nCircular Dichroism Study. […] The spectra were recorded in the wavelength range of 190-250 nm and averaged over 3 scans with a resolution of 0.5 nm, a bandwidth of 1.0 nm and a response time of 4 s. The sensitivity and the speed of the spectrometer were set to 100 mdeg and 50 nm/min, respectively. All peptides were dissolved in 20% acetonitrile/H2O to reach final concentration of 50 μM."}, "HeLa cells [6]": {"tested_on": "HeLa cells", "assay": "Cellular uptake of fluorescein-labeled Noxa peptides by FACS and fluorescence microscopy", "assay_type": "cell-based", "conditions": "10 μM fluorescein-labeled peptide, 2 hours", "description": "FIG. 13. […] (a) Flow cytometry analysis of cell permeability of the FITC-labeled linear or stapled peptide. HeLa cells were treated with 10 μM of fluorescein-labeled peptides in serum-free DMEM medium for 2 hours followed by fixation with formaldehyde. (b) Fluorescent micrographs of HeLa cells treated with 10 μM of fluorescein-labeled (Fl) linear or cross-linked NoxaBH3 peptide. Scale bar=50 μm.\nTo investigate cellular uptake of the cross-linked peptides, the N-terminal fluorescein-labeled cross-linked NoxaBH3 peptides (5a, 6a, 7a, 8a) and linear peptide Fl-Noxa-(75-93)-C75A were prepared and their uptakes into HeLa cells were examined by both FACS and fluorescence microscopy. […] To examine whether the cross-linked peptides induce apoptosis, Mcl-1-overexpressing Raji cells and K562 cells co-transfected with Mcl-1/BimEL were treated with the cross-linked peptides and the cell viabilities were measured by CellTiter-Glo reagent. […] For the remaining peptides, the following SEQ ID NOs apply: peptide 9a and 10A are SEQ ID NO:17; 11a and 12 a are SEQ ID NO:18; 5c, 5d, 5e, Fluo-5a, Fluo-6a, and Fluo-6b are SEQ ID NO:16; Fluo-NoxaB^75-94-C75A is SEQ ID NO:15; and Fluo-71 is SEQ ID NO:17."}, "GST-Mcl-1 [7]": {"target": "T1, GST-Mcl-1", "assay": "Competitive fluorescence polarization assay", "assay_type": "binding", "description": "Competitive Florescence Polarization Assay. The binding affinity of the Noxa peptides toward GST-Mcl-1 was determined in a competitive fluorescence polarization assay with the fluorescein-labeled Bak or Bim. Briefly, fluorescein-labeled Bak was incubated with GST-Mcl-1 in a binding buffer (PBS, 0.005% Tween-20, pH7.4) at room temperature in a 96-well microtiter plate. […] The reading was repeated at various time points to ensure that the competition has reached equilibrium."}, "Mcl-1": {"target": "Mcl-1 (Homo sapiens, UniProt Q07820)", "sequence (Q07820 whole entry, species assumed)": "as the sequence (Q07820 whole entry) above", "assay": "ELISA of cross-linked Noxa peptides", "assay_type": "binding"}}, "note": "Numbered stars: 1 amine (or outer) side, 2 acyl side, 3 side chain; on linkers, the order of the positions; unused ones are H or OH. Bridge positions count the residues as written; N and C are the ends. Square brackets hold non-standard residues; d marks the D form. Peptide text beside a SMILES is read from it. CH2(3,3'-bipyridine-6,6')CH2 = c1cc(C[*:1])ncc1-c1ccc(C[*:2])nc1"}
{"compound": "CC[C@H](C)[C@@H]1NC(=O)[C@H](CCCNC(=N)N)NC(=O)[C@H](CCCNC(=N)N)NC(=O)[C@H](CC(C)C)NC(=O)[C@H](NC(=O)[C@H](C)NC(=O)[C@H](C)NC(=O)CCCCCNC(=S)Nc2ccc3c(c2)C(=O)OC32c3ccc(O)cc3Oc3cc(O)ccc32)CSCc2ccc(cc2)-c2ccc(cc2)CSC[C@@H](C(=O)N[C@H](C(=O)N[C@@H](CC(N)=O)C(=O)N[C@@H](CC(C)C)C(=O)N[C@@H](CCCNC(=N)N)C(=O)N[C@@H](CCC(N)=O)C(=O)N[C@@H](CCCCN)C(=O)N[C@@H](CC(C)C)C(=O)N[C@@H](CC(C)C)C(=O)N[C@@H](CC(N)=O)C(N)=O)C(C)C)NC(=O)[C@H](CC(=O)O)NC(=O)CNC1=O", "note": "[Fl-6a]", "values": [{"measurement": "Kd", "setting": "GST-Mcl-1 [1]", "result": "0.7 ± 0.1", "unit": "nM"}, {"measurement": "Kd", "setting": "GST-Bcl-xL", "result": "> 2000", "unit": "nM"}]}
{"compound": "CC[C@H](C)[C@@H]1NC(=O)[C@H](CCCNC(=N)N)NC(=O)[C@H](CCCNC(=N)N)NC(=O)[C@H](CC(C)C)NC(=O)[C@@H](NC(=O)[C@H](C)NC(=O)[C@H](C)NC(=O)CCCCCNC(=S)Nc2ccc3c(c2)C(=O)OC32c3ccc(O)cc3Oc3cc(O)ccc32)CSCc2ccc(cc2)-c2ccc(cc2)CSC[C@@H](C(=O)N[C@H](C(=O)N[C@@H](CC(N)=O)C(=O)N[C@@H](CC(C)C)C(=O)N[C@@H](CCCNC(=N)N)C(=O)N[C@@H](CCC(N)=O)C(=O)N[C@@H](CCCCN)C(=O)N[C@@H](CC(C)C)C(=O)N[C@@H](CC(C)C)C(=O)N[C@@H](CC(N)=O)C(N)=O)C(C)C)NC(=O)[C@H](CC(=O)O)NC(=O)CNC1=O", "note": "[Fl-5a]", "values": [{"measurement": "Kd", "setting": "GST-Mcl-1 [1]", "result": "0.8 ± 0.1", "unit": "nM"}, {"measurement": "Kd", "setting": "GST-Bcl-xL", "result": "> 2000", "unit": "nM"}]}
{"compound": "CC(=O)N[C@@H](CC(C)C)C(=O)N[C@H](C(=O)N[C@@H](Cc1ccccc1)C(=O)N[C@H]1CSCc2ccc(cn2)-c2ccc(nc2)CSC[C@@H](C(=O)N[C@@H](CO)C(N)=O)NC(=O)[C@H](CC(C)C)NC(=O)[C@H](CCCNC(=N)N)NC(=O)[C@H](C)NC(=O)[C@H](Cc2c[nH]c3ccccc23)NC(=O)[C@H](Cc2ccc(O)cc2)NC(=O)[C@H](CCCNC(=N)N)NC1=O)[C@@H](C)O", "note": "[Peptide 2b, LTFC″RYWARLC″S] (Ac-LTFCRYWARLCS-NH2; linker 4-11 via CH2(3,3'-bipyridine-6,6')CH2)", "values": [{"measurement": "increase in mean fluorescence / permeability by arginine substitution", "setting": "HeLa cells [2]; compared to charge-neutral counterpart", "result": 2, "unit": "fold"}, {"measurement": "increase in mean fluorescence by Bpy cross-linking", "setting": "HeLa cells [2]; over linear counterpart", "result": "~5", "unit": "fold"}, {"measurement": "cellular fluorescence, FITC channel", "setting": "HeLa cells [3]", "result": "strongest cellular fluorescence"}, {"measurement": "cytotoxicity", "setting": "HeLa cells [4]", "result": "apparent cytotoxicity"}]}
{"compound": "CC[C@H](C)[C@@H]1NC(=O)[C@H](CCCNC(=N)N)NC(=O)[C@H](CCCNC(=N)N)NC(=O)[C@H](CC(C)C)NC(=O)[C@@](C)(NC(=O)[C@H](C)NC(=O)[C@H](C)NC(C)=O)CSCc2ccc(cc2)-c2ccc(cc2)CSC[C@@](C)(C(=O)N[C@H](C(=O)N[C@@H](CC(N)=O)C(=O)N[C@@H](CC(C)C)C(=O)N[C@@H](CCCNC(=N)N)C(=O)N[C@@H](CCC(N)=O)C(=O)N[C@@H](CCCCN)C(=O)N[C@@H](CC(C)C)C(=O)N[C@@H](CC(C)C)C(=O)N[C@@H](CC(N)=O)C(N)=O)C(C)C)NC(=O)[C@H](CC(=O)O)NC(=O)CNC1=O", "note": "[Peptide 8a]", "values": [{"measurement": "enhancement in percent helicity", "setting": "[5]", "result": "~3", "unit": "fold"}, {"measurement": "cellular uptake", "setting": "HeLa cells [6]", "result": "robust uptakes"}]}
{"compound": "CC(=O)N[C@@H](CC(C)C)C(=O)N[C@H](C(=O)N[C@@H](Cc1ccccc1)C(=O)N[C@@H]1CSCc2ccc(cn2)-c2ccc(nc2)CSC[C@@H](C(=O)N[C@@H](CO)C(N)=O)NC(=O)[C@H](CC(C)C)NC(=O)[C@H](CCCNC(=N)N)NC(=O)[C@H](C)NC(=O)[C@H](Cc2c[nH]c3ccccc23)NC(=O)[C@H](Cc2ccc(O)cc2)NC(=O)[C@H](CCCNC(=N)N)NC1=O)[C@@H](C)O", "note": "[Peptide 4b, LTFc″RYWARLC″S] (Ac-LTF[dC]RYWARLCS-NH2; linker 4-11 via CH2(3,3'-bipyridine-6,6')CH2; C-terminus assumed)", "values": [{"measurement": "cellular fluorescence, FITC channel", "setting": "HeLa cells [3]", "result": "strongest cellular fluorescence"}, {"measurement": "cytotoxicity", "setting": "HeLa cells [4]", "result": "apparent cytotoxicity"}]}
{"compound": "CC[C@H](C)[C@@H]1NC(=O)[C@H](CCCNC(=N)N)NC(=O)[C@H](CCCNC(=N)N)NC(=O)[C@H](CC(C)C)NC(=O)[C@H](NC(=O)[C@H](C)NC(=O)[C@H](C)NC(C)=O)CSCc2ccc(cc2)-c2ccc(cc2)CSC[C@@H](C(=O)N[C@H](C(=O)N[C@@H](CC(N)=O)C(=O)N[C@@H](CC(C)C)C(=O)N[C@@H](CCCNC(=N)N)C(=O)N[C@@H](CCC(N)=O)C(=O)N[C@@H](CCCCN)C(=O)N[C@@H](CC(C)C)C(=O)N[C@@H](CC(C)C)C(=O)N[C@@H](CC(N)=O)C(N)=O)C(C)C)NC(=O)[C@H](CC(=O)O)NC(=O)CNC1=O", "note": "[Peptide 6a]", "values": [{"measurement": "enhancement in percent helicity", "setting": "[5]", "result": "roughly 2 fold"}, {"measurement": "IC50", "setting": "GST-Mcl-1 [7]; Noxa peptides, three repeats ± SD, read-out: FP, IC50", "result": "73 ± 18", "unit": "nM"}, {"measurement": "increase in activity in FPA", "setting": "GST-Mcl-1 [7]; compared to the parent linear peptide", "result": 37, "unit": "fold"}, {"measurement": "IC50", "setting": "Mcl-1", "result": 260, "unit": "nM"}, {"measurement": "cellular uptake", "setting": "HeLa cells [6]", "result": "robust uptakes"}]}
